Legend:
human TLR8 = biological target: T1, human TLR8 (Homo sapiens, UniProt Q9NR97); test: TLR8 inhibition reporter assay (HEK-Blue cells, SEAP reporter, R848 stimulation); assay type: cell-based; details: HEK-Blue cells overexpressing human TLR8, R848 15.9 μM
T1 construct: host or cells: HEK-Blue cells
T1 sequence (Q9NR97 27-1041): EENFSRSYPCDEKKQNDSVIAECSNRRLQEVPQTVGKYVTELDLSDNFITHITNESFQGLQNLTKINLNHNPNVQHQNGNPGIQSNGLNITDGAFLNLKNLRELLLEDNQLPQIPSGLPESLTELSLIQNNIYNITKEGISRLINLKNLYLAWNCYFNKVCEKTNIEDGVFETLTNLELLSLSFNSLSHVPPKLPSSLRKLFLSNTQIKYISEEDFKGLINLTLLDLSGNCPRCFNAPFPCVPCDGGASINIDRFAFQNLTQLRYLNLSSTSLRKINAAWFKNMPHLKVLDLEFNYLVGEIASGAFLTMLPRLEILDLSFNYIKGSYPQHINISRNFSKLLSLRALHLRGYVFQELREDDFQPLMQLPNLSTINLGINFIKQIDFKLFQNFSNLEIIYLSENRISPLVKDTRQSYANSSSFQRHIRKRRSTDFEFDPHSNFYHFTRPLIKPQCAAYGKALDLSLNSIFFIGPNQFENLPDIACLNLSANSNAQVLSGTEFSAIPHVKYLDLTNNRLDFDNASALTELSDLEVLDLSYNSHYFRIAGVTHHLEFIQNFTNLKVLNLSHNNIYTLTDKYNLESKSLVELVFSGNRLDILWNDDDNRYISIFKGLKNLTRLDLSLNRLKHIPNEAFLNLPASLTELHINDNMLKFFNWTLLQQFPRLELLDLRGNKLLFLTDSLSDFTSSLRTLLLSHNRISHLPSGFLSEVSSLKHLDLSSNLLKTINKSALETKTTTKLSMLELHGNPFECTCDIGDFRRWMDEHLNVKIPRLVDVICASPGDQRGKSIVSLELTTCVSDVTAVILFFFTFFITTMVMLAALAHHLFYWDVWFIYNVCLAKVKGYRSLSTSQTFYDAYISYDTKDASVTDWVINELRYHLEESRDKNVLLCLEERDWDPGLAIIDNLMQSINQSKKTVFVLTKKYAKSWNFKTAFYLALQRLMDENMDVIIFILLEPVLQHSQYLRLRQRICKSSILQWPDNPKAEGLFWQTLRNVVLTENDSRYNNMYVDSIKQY
In short: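 Dose-response testing from 0.05 nM to 50 μM final was done on reporter cells for 22 hours at 37° C. Secreted SEAP was then detected, and inhibition was calculated as percent reduction of the agonist-plus-DMSO signal compared with wells given a known inhibitor.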

[1] = system: Imiquimod-induced psoriasis; test: Imiquimod induced psoriasis in mice; assay type: in vivo, mouse; details: male C57BL/6 mice, vs vehicle control
Protocol: Imiquimod Induced Psoriasis:
Male C57BL/6 mice of 8-9 week age were used to evaluate the impact of TLR7/8/9 inhibitors on Imiquimod-induced psoriasis. Mice (7 to 10 per group) were randomized into different treatment groups based on body weight. Mice from the respective treatment groups were treated orally, once daily for 6 days with vehicle or test compound. Psoriasis was induced by application of imiquimod cream on the shaved back region of the mice everyday for 6 days. Disease severity was monitored daily by recording of skin thickness, erythema and scaling. A cumulative disease score was also calculated to reflect the impact on the overall severity of inflammation in this model. At the end of experiment, all mice were euthanized by CO2 asphyxiation and skin samples were subjected for histology. At the end of experiment, one way ANOVA with Dunnett's test was performed to calculate the significance of test compound treated group vs. vehicle control group. Overall percent reduction in imiquimod induced psoriasis was calculated for test compound treated group vs vehicle control group.

[2] = system: MRL/lpr model of Systemic Lupus Erythematosus; test: MRL/lpr model of systemic lupus erythematosus (SLE); assay type: in vivo, mouse; details: MRL/lpr mice, oral once daily 8 weeks
Protocol: MRL/Lpr Model of Systemic Lupus Erythematosus (SLE) Male MRL/lpr mice of 12-14 weeks age were screened and randomized based on the titers of anti-dsDNA antibodies and urinary NGAL (Neutrophil Gelatinase Associated Lipocalin). Mice were treated orally, once daily for 8 weeks with vehicle or test compound. The effect of test compound on disease severity was assessed by measuring end points including proteinuria, urinary-NGAL, anti-dsDNA Ab titer, and lymphadenopathy. These end points were assessed before the start of treatment and after 4 and 8 weeks of treatment. At the end of experiment, all mice were euthanized by CO2 asphyxiation and kidney samples were subjected for histology. At the end of experiment, one way ANOVA with Dunnett's test was performed to calculate the significance of test compound treated group vs. vehicle control group. Percent reduction in disease severity was calculated for each parameter, for test compound treated group vs vehicle control group. A cumulative disease score and the percent reduction in cumulative disease score was calculated by considering the average inhibition in all parameters except lymphadenopathy to reflect the impact on the overall severity of disease progression.

[3] = 0.1 mg/kg orally once daily for 6 days
[4] = 1 mg/kg orally once daily for 6 days
[5] = 10 mg/kg orally once daily for 6 days
[6] = 30 mg/kg orally once daily for 6 days

COc1ccc(-c2[nH]c3ccc(C4CCN(C(=O)CN(C)C)CC4)cc3c2C(C)C)cc1OC [Example 209, 1-(4-(2-(3,4-dimethoxyphenyl)-3-isopropyl-1H-indol-5-yl)piperidin-1-yl)-2-(dimethylamino)ethan-1-one]
IC50 (human TLR8): 24 nM | % inhibition Cumulative score [1, 3]: 3% | % inhibition Erythema [1, 3]: 3% | % inhibition Scaling [1, 3]: 13% | % inhibition Skin Thickness [1, 3]: 0% | % inhibition Cumulative score [1, 4]: 27% | % inhibition Erythema [1, 4]: 26% | % inhibition Scaling [1, 4]: 38% | % inhibition Skin Thickness [1, 4]: 18% | % inhibition Cumulative score [1, 5]: 40% | % inhibition Erythema [1, 5]: 41% | % inhibition Scaling [1, 5]: 50% | % inhibition Skin Thickness [1, 5]: 29% | % inhibition Cumulative score [1, 6]: 49% | % inhibition Erythema [1, 6]: 53% | % inhibition Scaling [1, 6]: 63% | % inhibition Skin Thickness [1, 6]: 32% | % inhibition Anti-dsDNA antibody titer ([2]; dose 1 mg/kg): 44% | % inhibition Cumulative score ([2]; dose 1 mg/kg): 42% | % inhibition IL-10 ([2]; dose 1 mg/kg): 10% | % inhibition IL-12p40 ([2]; dose 1 mg/kg): 13% | % inhibition Lymphadenopathy ([2]; dose 1 mg/kg): 35% | % inhibition Proteinuria ([2]; dose 1 mg/kg): 46% | % inhibition Urinary NGAL ([2]; dose 1 mg/kg): 36% | % inhibition Anti-dsDNA antibody titer ([2]; dose 2 mg/kg): 57% | % inhibition Cumulative score ([2]; dose 2 mg/kg): 55% | % inhibition IL-10 ([2]; dose 2 mg/kg): 22% | % inhibition IL-12p40 ([2]; dose 2 mg/kg): 24% | % inhibition Lymphadenopathy ([2]; dose 2 mg/kg): 38% | % inhibition Proteinuria ([2]; dose 2 mg/kg): 57% | % inhibition Urinary NGAL ([2]; dose 2 mg/kg): 52% | % inhibition Anti-dsDNA antibody titer ([2]; dose 5 mg/kg): 67% | % inhibition Cumulative score ([2]; dose 5 mg/kg): 61% | % inhibition IL-10 ([2]; dose 5 mg/kg): 36% | % inhibition IL-12p40 ([2]; dose 5 mg/kg): 18% | % inhibition Lymphadenopathy ([2]; dose 5 mg/kg): 50% | % inhibition Proteinuria ([2]; dose 5 mg/kg): 61% | % inhibition Urinary NGAL ([2]; dose 5 mg/kg): 54% | % inhibition Anti-dsDNA antibody titer ([2]; dose 7.5 mg/kg): 70% | % inhibition Cumulative score ([2]; dose 7.5 mg/kg): 67% | % inhibition IL-10 ([2]; dose 7.5 mg/kg): 36% | % inhibition IL-12p40 ([2]; dose 7.5 mg/kg): 27% | % inhibition Lymphadenopathy ([2]; dose 7.5 mg/kg): 58% | % inhibition Proteinuria ([2]; dose 7.5 mg/kg): 68% | % inhibition Urinary NGAL ([2]; dose 7.5 mg/kg): 62%

CCN(CC)C(=O)CCN(C)CC(=O)N1CCC(c2ccc3[nH]c(-c4ccc(OC)c(OC)c4)c(C(C)C)c3c2)CC1 [Example 204, 3-((2-(4-(2-(3,4-dimethoxyphenyl)-3-isopropyl-1H-indol-5-yl)piperidin-1-yl)-2-oxoethyl)(methyl)amino)-N,N-diethylpropanamide]
IC50 (human TLR8): 112 nM

CCc1c(-c2ccc(OC)c(OC)c2)[nH]c2ccc(C3CCN(C4CCN(CC(C)C)CC4)CC3)cc12 [Example 123, 2-(3,4-dimethoxyphenyl)-3-ethyl-5-(1′-isobutyl-[1,4′-bipiperidin]-4-yl)-1H-indole-di-trifluoroacetic acid]
IC50 (human TLR8): 150 nM

CCc1c(-c2ccc(OC)c(OC)c2)[nH]c2ccc(C3CCN(C4CCN(Cc5cc(C)n(C)n5)CC4)CC3)cc12 [Example 144, 2-(3,4-dimethoxyphenyl)-5-(1′-((1,5-dimethyl-1H-pyrazol-3-yl)methyl)-[1,4′-bipiperidin]-4-yl)-3-ethyl-1H-indole]
IC50 (human TLR8): 73 nM
